System: New Zealand White rabbits
Conditions: rabbit, in vivo, sc
Protocol: 100 female New Zealand White rabbits were tested according to the study design detailed below (Table 2). The vehicle/adjuvant and test article were administered via intramuscular injection. […] The pumps were surgically implanted subcutaneously. The dose volume of the test article and vehicle was 0.5 ml/kg. The dose rate of the pumps was approximately 5 μl/hr.
The test article and vehicle/adjuvant formulations were administered to the study animals once at 30 days prior to gestation, once at 9 days prior to gestation, and once on day 12 of gestation.

CN1CCCC1c1cccnc1 (stereo not drawn) [Nicotine]
Mortality (female, New Zealand White): 3
Number of Does: Abortion (female): 5
Number of Does: Found dead/euthanized in extremis (female): 2
Number of Does: No. Delivered (female): 11
Number of Does: No. Survived Day 28 (female): 6
Number of Does: No. whole litters dead (female): 4
Number of Does: Not Pregnant (female): 2
Number of Kits (Mean) LD 0-7 (female): 47.8
Number of Kits (Mean) LD 7-14 (female): 100.0
Number of Kits (Mean) LD 14-21 (female): 100.0
Number of Kits (Mean) LD 21-28 (female): 100.0
mean lactation index, representing kit survival from lactation day 0-7 (female): 47.8%
mean number of kits born (female): 6.8 kits/liter
gestation food consumption: significantly decreased
maternal body weight: decrease in maternal body weight

Reference: patent publication US7547712B2 (priority 2006, dated 2009)
